Test results published in patent US20240109880A1 (Insilico Medicine IP Limited, priority 2021, published 2024).
pIC50: −log10 of the molar value. Values after ≈ are worked out from the molar mass of the structure shown.

Experiments:
[1] = Permeability in Caco-2 Assay; type: in vitro ADME; conditions: human, pH 7.4, 2 hours; for efflux ratio at 2 h, 2 μM: Caco-2, 2.00 μM bi-directionally; for Papp A→B at 2 h, 2 μM: Caco-2, 2.00 μM, pH 7.40
Experimental: (§1) Permeability of test compounds was determined in Caco-2 Assay. Caco-2 cells purchased from ATCC were seeded onto […] (PET) in 96-well Corning Insert plates at 1×10^5 cells/cm2, and refreshed medium every 4-5 days until to the 21st to 28th day for confluent cell monolayer formation. The transport buffer in the study was HBSS with 10.0 mM HEPES at pH 7.40±0.05. Test compound was tested at 2.00 μM bi-directionally in duplicate. Digoxin was tested at 10.0 μM bi-directionally in duplicate, while nadolol and metoprolol were tested at 2.00 μM in A to B direction in duplicate. Final DMSO concentration was adjusted to less than 1%. The plate was incubated for 2 hours in CO2 incubator at 37±1° C., with 5% CO2 at saturated humidity without shaking. And all samples after mixed with acetonitrile containing internal standard were centrifuged at 3200×g for 10 min. For nadolol and metoprolol, 200 μL supernatant solution was diluted with 600 μL ultra-pure water for LC-MS/MS analysis. For digoxin and test compounds, 200 μL supernatant solution was diluted with 200 μL ultra-pure water for LC-MS/MS analysis. Concentrations of test and control compounds in starting solution, donor solution, and receiver solution were quantified by LC-MS/MS methodologies, using peak area ratio of analyte/internal standard. After transport assay, lucifer yellow rejection assay was applied to determine the Caco-2 cell monolayer integrity.

[2] = Kinetic solubility in 50 mM phosphate buffer (pH 7.4); type: physicochemical; conditions: for solubility kinetic at 24 h: aqueous buffer, kinetic from dmso stock, 50 mM phosphate buffer pH 7.4, 24 hours at room temperature
Experimental: 10 μL of 10 mM in DMSO of test and control compounds was added into lower chambers of whatman miniuniprep vials, respectively. 490 μL of 50 mM PB (pH 7.4) was added into lower chambers of the whatman miniuniprep vials, respectively. The solubility samples were vortexted for at least 2 minutes. The miniuniprep vials were shaken on a shaker for 24 hours at room temperature at the speed of 800 rpm and then centrifuged for 20 minutes (eg. 4000 rpm). The miniunipreps were compressed to prepare the filtrates for injection into HPLC system to calculate the concentration with standard curve.

KAT6A = KAT6A (Homo sapiens (Human), UniProt Q92794); test: KAT6A Biochemical Assay (radiometric 384-well, [3H]-Ac-CoA, biotinylated H4(1-30) peptide); conditions: 5 nM KAT6A enzyme solution (2×), 60 min reaction at room temperature
KAT6A, sequence (Q92794 whole entry): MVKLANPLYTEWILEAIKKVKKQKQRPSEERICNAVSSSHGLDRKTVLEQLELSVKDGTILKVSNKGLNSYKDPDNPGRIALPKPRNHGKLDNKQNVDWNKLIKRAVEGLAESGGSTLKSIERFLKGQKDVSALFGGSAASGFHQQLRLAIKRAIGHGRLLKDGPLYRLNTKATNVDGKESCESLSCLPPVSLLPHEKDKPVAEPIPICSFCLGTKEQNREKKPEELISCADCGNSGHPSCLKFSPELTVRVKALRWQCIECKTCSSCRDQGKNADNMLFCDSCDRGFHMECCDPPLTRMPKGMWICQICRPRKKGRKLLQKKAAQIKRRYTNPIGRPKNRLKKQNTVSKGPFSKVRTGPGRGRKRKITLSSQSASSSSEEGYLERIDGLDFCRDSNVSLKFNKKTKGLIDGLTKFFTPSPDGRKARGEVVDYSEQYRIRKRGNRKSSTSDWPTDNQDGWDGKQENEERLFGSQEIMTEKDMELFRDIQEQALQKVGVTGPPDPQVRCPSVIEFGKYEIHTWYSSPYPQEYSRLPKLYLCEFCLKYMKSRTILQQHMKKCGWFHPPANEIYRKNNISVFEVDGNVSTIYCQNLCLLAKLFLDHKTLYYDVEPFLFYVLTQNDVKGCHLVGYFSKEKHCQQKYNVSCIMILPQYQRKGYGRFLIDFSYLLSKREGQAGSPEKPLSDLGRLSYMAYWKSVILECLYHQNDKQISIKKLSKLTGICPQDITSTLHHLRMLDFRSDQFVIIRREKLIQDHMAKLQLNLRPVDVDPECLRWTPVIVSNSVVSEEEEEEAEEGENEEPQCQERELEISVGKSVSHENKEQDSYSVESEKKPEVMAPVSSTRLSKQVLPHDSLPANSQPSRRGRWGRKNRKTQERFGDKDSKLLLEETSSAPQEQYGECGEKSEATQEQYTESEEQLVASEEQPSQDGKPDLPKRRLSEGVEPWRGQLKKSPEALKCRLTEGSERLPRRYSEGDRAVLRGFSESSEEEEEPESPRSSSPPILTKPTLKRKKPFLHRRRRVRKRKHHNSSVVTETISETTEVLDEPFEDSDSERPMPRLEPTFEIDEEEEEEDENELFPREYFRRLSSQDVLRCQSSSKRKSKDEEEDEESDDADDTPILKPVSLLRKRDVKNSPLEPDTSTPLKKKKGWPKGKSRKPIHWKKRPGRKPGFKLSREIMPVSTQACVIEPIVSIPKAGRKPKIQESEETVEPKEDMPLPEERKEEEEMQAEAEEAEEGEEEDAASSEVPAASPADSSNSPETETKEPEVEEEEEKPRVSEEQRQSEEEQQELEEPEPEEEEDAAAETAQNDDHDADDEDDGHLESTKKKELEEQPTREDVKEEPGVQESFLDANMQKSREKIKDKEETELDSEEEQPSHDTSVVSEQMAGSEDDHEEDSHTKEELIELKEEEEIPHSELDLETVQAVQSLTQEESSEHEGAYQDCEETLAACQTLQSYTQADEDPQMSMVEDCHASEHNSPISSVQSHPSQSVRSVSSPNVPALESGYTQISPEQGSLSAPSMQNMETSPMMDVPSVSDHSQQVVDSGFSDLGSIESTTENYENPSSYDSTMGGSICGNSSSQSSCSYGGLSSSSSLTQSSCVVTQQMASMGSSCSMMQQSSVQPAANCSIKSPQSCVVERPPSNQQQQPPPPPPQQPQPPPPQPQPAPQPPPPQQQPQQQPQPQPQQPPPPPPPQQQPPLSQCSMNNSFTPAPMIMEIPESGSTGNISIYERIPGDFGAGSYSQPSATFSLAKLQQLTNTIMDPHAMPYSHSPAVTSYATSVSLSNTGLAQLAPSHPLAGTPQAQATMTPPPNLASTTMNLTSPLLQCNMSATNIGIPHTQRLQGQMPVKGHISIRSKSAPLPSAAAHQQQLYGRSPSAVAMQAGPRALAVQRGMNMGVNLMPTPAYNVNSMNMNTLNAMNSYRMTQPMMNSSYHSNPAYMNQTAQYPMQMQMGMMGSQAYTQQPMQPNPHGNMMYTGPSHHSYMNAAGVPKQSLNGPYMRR
Experimental: Inhibition of KAT6A enzymatic activity by test compounds was determined using a radiometric 384-well format assay. A 10-point serial dilution of the test compounds were conducted in DMSO and then a volume of 200 nL was transferred into 384-well assay plate by Echo (Labcyte). 10 μL of 2× enzyme solution (5 nM KAT6A (Active Motif) in assay buffer (50 mM Tris-HCl pH 8.0, 50 mM KCl, 0.1 mM EDTA, 5% glycerol, 1 mM DTT)) was dispensed into assay plate except for low control wells, in which 10 μL of assay buffer was transferred. The plate was incubated at room temperature for 15 min before addition of 10 μL of 2×[^3H]-acetyl coenzyme A (Ac-CoA) and substrate peptide mix solution (500 nM (KAT6A) [^3H]-Ac-CoA (PerkinElmer) and 800 nM (KAT6A) biotinylated H4(1-30) peptide (GL Biochem) in assay buffer) to each well to start reaction. The plate was incubated at room temperature for 60 min (KAT6A), and then the reaction was stopped by adding 10 μL of stop solution (cold Ac-CoA (Cayman) in 1× assay buffer). 25 μL of reaction in each well was transferred to Flashplate (PerkinElmer) and incubated for another 1 hour at room temperature. The plate was read on Microbeta and the inhibition percentage of each compound treated well was calculated based on the equation in h %=(Max−sample)/(Max−Min)*100 where Max is signal from high control wells with enzyme, and Min is signal from low control wells with assay buffer only. The in h % data were further fit in XL-Fit to obtain IC50 values using a 4-parameter logistic (4PL) sigmoidal curve model.

Caco-2 cells = test: Permeability in Caco-2 Assay; type: in vitro ADME; conditions: comparison from Table 4 (vs compound 47 or vs PF-9363)
Experimental: as §1

Row | SMILES | efflux ratio at 2 h, 2 μM [1] | Papp A→B at 2 h, 2 μM [1] | solubility kinetic at 24 h [2] | pIC50 (KAT6A) | permeability compared with a reference compound (Caco-2 cells) | kinetic solubility compared with the otherwise identical compound having X group as carbon ([2]; comparison from Table 3)
1 | COc1cccc(OC)c1S(=O)(=O)Nc1noc2cc(Cn3cccn3)c3c(c12)OCCC3 [Compound 14, N-(5-((1H-pyrazol-1-yl)methyl)-3,4-dihydro-2H-chromeno [8,7-d]isoxazol-9-yl)-2,6-dimethoxybenzenesulfonamide] | 59.6 | 0.439 ×10⁻⁶ cm/s | 16.1 µM (≈ 7.58 µg/mL) | > 8.00 | – | –
2 | COc1cccc(OC)c1S(=O)(=O)Nc1noc2cc(Oc3ccccn3)c3c(c12)OCCC3 [Compound 24, 2,6-dimethoxy-N-(5-(pyridin-2-yloxy)-3,4-dihydro-2H-chromeno[8,7-d]isoxazol-9-yl)benzenesulfonamide] | 3.2 | 12.9 ×10⁻⁶ cm/s | 189 µM (≈ 91.4 µg/mL) | > 8.00 | – | –
3 | COc1cccc(OC)c1S(=O)(=O)Nc1noc2cc(Oc3nccs3)c3c(c12)OCCC3 [Compound 35, 2,6-dimethoxy-N-(5-(thiazol-2-yloxy)-3,4-dihydro-2H-chromeno[8,7-d]isoxazol-9-yl)benzenesulfonamide] | – | 8.59 ×10⁻⁶ cm/s | 165 µM (≈ 80.8 µg/mL) | > 8.00 | improved permeability | improved kinetic solubility
4 | COc1cccc(OC)c1S(=O)(=O)Nc1noc2cc(Cc3ccccn3)c3c(c12)OCCC3 [Compound 46, 2,6-dimethoxy-N-(5-(pyridin-2-ylmethyl)-3,4-dihydro-2H-chromeno[8,7-d]isoxazol-9-yl)benzenesulfonamide] | 15.3 | 2.66 ×10⁻⁶ cm/s | 3.34 µM (≈ 1.61 µg/mL) | > 8.00 | – | –
5 | COc1cccc(OC)c1S(=O)(=O)Nc1noc2cc(Cc3nccs3)c3c(c12)OCCC3 [Compound 47] | 12.3 | 3.53 ×10⁻⁶ cm/s | 12.1 µM (≈ 5.9 µg/mL) | > 8.00 | – | –
6 | COc1ccccc1S(=O)(=O)Nc1noc2cc(Oc3nccs3)c3c(c12)OCCCC3 [Compound 63] | 2.88 | 6.48 ×10⁻⁶ cm/s | – | > 8.00 | – | –
7 | COc1cc(C)nc(OC)c1S(=O)(=O)Nc1noc2cc(Oc3nccs3)c3c(c12)OCCCC3 [Compound 64] | 2.82 | 9 ×10⁻⁶ cm/s | – | > 8.00 | – | –
8 | COc1cccc(OC)c1S(=O)(=O)Nc1noc2cc(Sc3nccs3)cc(OC)c12 [Compound 66, 2,6-dimethoxy-N-(4-methoxy-6-(thiazol-2-ylthio)benzo[d]isoxazol-3-yl)benzenesulfonamide] | 4.25 | 6.83 ×10⁻⁶ cm/s | – | > 8.00 | – | –
9 | COc1ccccc1S(=O)(=O)Nc1noc2cc(Sc3nccs3)cc(OC)c12 [Compound 67, 2-methoxy-N-(4-methoxy-6-(thiazol-2-ylthio)benzo[d]isoxazol-3-yl)benzenesulfonamide] | 1.4 | 10.9 ×10⁻⁶ cm/s | – | 7.00 to 8.00 | – | –
10 | COc1cc(C)nc(OC)c1S(=O)(=O)Nc1noc2cc(Sc3nccs3)cc(OC)c12 [Compound 68, 2,4-dimethoxy-N-(4-methoxy-6-(thiazol-2-ylthio)benzo[d]isoxazol-3-yl)-6-methylpyridine-3-sulfonamide] | 9.74 | 2.29 ×10⁻⁶ cm/s | – | 7.00 to 8.00 | – | –
